This assay addresses T1, CSNK1G2 (CK1 gamma 2) (Homo sapiens, UniProt P78368).
T1 construct: purchased Thermo Fisher Scientific (Life Technologies) SelectScreen
In words: SelectScreen Z'LYTE. Format: biochemical. The procedure, abridged:
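NU5455 was profiled across the SelectScreen Broad panel of kinase activity and binding assays. Z'LYTE reactions such as CSF1R ran at apparent Km ATP, while the Adapta CAMK1 assay used ATP listed as 10. Values are given as percent.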

Structures are written as SMILES.

T1 sequence (P78368 whole entry): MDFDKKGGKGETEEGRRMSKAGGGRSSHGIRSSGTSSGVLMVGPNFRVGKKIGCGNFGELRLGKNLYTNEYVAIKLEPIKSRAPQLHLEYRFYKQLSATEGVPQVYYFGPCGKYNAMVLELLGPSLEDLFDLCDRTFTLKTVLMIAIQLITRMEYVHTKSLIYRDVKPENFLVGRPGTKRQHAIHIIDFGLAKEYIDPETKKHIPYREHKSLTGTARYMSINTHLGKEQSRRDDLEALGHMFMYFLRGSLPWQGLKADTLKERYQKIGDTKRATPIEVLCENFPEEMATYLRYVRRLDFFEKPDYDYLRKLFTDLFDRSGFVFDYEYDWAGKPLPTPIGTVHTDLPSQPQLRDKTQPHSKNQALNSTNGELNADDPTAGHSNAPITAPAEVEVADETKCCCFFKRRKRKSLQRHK

On to `CN(C(=O)CN1CCOCC1)c1ccc2sc3c(-c4cccc5c(=O)cc(N6CC7CCC(C6)O7)oc45)cccc3c2c1` [NU5455], for which the inhibition at 1 µM was -9.3%.

The record behind these values is paper PMC6934184, “Selective DNA-PKcs inhibition extends the therapeutic index of localized radiotherapy and chemotherapy” (The Journal of Clinical Investigation, 2019).
